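Five compound concentrations were applied to cells in 96-well plates for 48 hours; endpoints were derived by simple linear interpolation of the resulting dose-response curve. GI50 = concentration required for 50% inhibition of growth.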 Calls of active or inactive are those of the source. Rule as the data show it: active = GI50 up to about 1.1 µM and inactive = higher.
Columns and labels:
Experiment in all cases: inhibition of tumour cell growth, NCI panel, 48 h
[1] = system: 786-0
[2] = system: A498
[3] = system: COLO 205
[4] = system: DMS-114
[5] = system: HCT-116
[6] = system: LOX IMVI
[7] = system: M14
[8] = system: MOLT-4
[9] = system: NCI-H23
[10] = system: NCI-H460
[11] = system: OVCAR-8
[12] = system: RPMI-8226
[13] = system: SF-268
[14] = system: SK-MEL-5
[15] = system: SK-OV-3
[16] = system: SN12C
[17] = system: SNB-78
[18] = system: SR
[19] = system: U-251
[20] = system: UACC-257

Measured: GI50

CCN(CCO)CCNc1ccc(C)c2sc3ccccc3c(=O)c12
inactive: [1] 2.96 µM | [2] 15 µM | [3] 1.63 µM | [4] 7.67 µM | [5] 2.88 µM | [6] 2.24 µM | [7] 1.78 µM | [8] 4.43 µM | [9] 8.05 µM | [10] 1.73 µM | [11] 4.06 µM | [12] 4.28 µM | [13] 6.85 µM | [14] 2.59 µM | [15] 5.66 µM | [16] 5.24 µM | [17] 7.05 µM | [18] 6.01 µM | [19] 3.69 µM | [20] 2.75 µM

CCN(CC)C1CC(O[C@H]2C[C@](O)(C(=O)CO)Cc3c(O)c4c(c(O)c32)C(=O)c2c(OC)cccc2C4=O)OC(C)C1O (stereo not given in full)
active: [1] 0.0588 µM | [2] 0.0236 µM | [3] 0.0387 µM | [4] 0.0647 µM | [5] 0.0214 µM | [6] < 0.0259 µM | [7] 0.0982 µM | [8] 0.0225 µM | [9] 0.0491 µM | [10] < 0.019 µM | [11] < 0.0262 µM | [12] 0.0513 µM | [13] 0.047 µM | [14] 0.0508 µM | [15] 0.299 µM | [16] 0.045 µM | [17] 0.08 µM | [19] 0.0509 µM | [20] 0.0951 µM

CCOC(OCC)(OCC)C(Br)CC (stereo not given)
inactive: [1] 16.4 µM | [2] > 100 µM | [3] 31.8 µM | [4] 12.5 µM | [6] 88.1 µM | [7] > 100 µM | [8] > 100 µM | [9] > 100 µM | [10] > 100 µM | [11] > 100 µM | [12] 18.8 µM | [13] 36.7 µM | [14] > 100 µM | [15] > 100 µM | [16] 64.9 µM | [17] > 100 µM | [18] 21.6 µM | [19] > 100 µM | [20] > 100 µM
active: [5] 0.0281 µM

[O-][S+](Cc1cc2c(cc1Br)OCO2)c1ccccc1 (stereo not given)
inactive: [1] 39.1 µM | [2] > 100 µM | [3] 34.2 µM | [4] 23.2 µM | [5] 44.9 µM | [6] 15.7 µM | [7] 48.2 µM | [8] 26.5 µM | [9] 68.2 µM | [10] 41.4 µM | [11] 41.4 µM | [12] 24.8 µM | [13] 59.2 µM | [14] 61.5 µM | [15] > 100 µM | [16] 48 µM | [17] > 100 µM | [19] 30.3 µM | [20] 51.4 µM

COc1cc(O)c(C(=O)C2Cc3ccccc32)c(OC)c1 (stereo not given)
inactive: [1] 44.2 µM | [2] 30 µM | [3] > 100 µM | [4] 27.4 µM | [5] 38.6 µM | [6] 51.4 µM | [7] 33.9 µM | [8] 16.9 µM | [10] 61.8 µM | [11] 48.3 µM | [12] 16.8 µM | [13] 67.8 µM | [14] 29.6 µM | [15] > 100 µM | [16] 46.5 µM | [17] > 100 µM | [19] 64.3 µM | [20] 47.3 µM

Cc1cc(=O)oc2c(C3=NN(C=O)C(c4ccccc4)C3)c(O)ccc12 (stereo not given)
inactive: [1] 26.1 µM | [2] > 56.2 µM | [3] > 71.8 µM | [4] > 100 µM | [5] 81.1 µM | [6] > 72.4 µM | [7] 51.9 µM | [8] > 73.6 µM | [9] 85.9 µM | [10] 73.3 µM | [11] 71.1 µM | [12] > 79.3 µM | [13] 31.6 µM | [14] 56.2 µM | [15] 20.2 µM | [16] 90.2 µM | [17] 24.3 µM | [18] 60.1 µM | [19] 32.7 µM | [20] 83.4 µM

O=c1[nH]c(=O)n(C2OC(CO)C(O)C2O)cc1/N=N/NCc1ccccc1 (stereo not given)
inactive: [1] > 100 µM | [2] > 100 µM | [3] > 69.2 µM | [4] > 66.5 µM | [5] > 62.2 µM | [6] > 63.8 µM | [7] > 100 µM | [8] > 100 µM | [9] > 100 µM | [10] > 69.2 µM | [11] > 100 µM | [12] > 59.6 µM | [13] > 100 µM | [14] > 100 µM | [15] > 100 µM | [16] > 100 µM | [17] > 100 µM | [18] > 63.2 µM | [19] > 100 µM | [20] > 100 µM

Cc1nc(-c2ccccc2)cc2c1c(=O)oc1ccccc12
inactive: [1] > 100 µM | [3] > 100 µM | [4] > 100 µM | [5] > 100 µM | [7] > 100 µM | [8] > 100 µM | [9] > 100 µM | [10] > 100 µM | [11] > 100 µM | [12] > 100 µM | [13] > 100 µM | [14] > 100 µM | [15] > 100 µM | [16] > 100 µM | [17] > 100 µM | [18] > 100 µM | [19] > 100 µM | [20] > 100 µM

COc1ccc2cc3n(c(=O)c2c1)CCc1c-3cc(OC)c(OC)c1OC
inactive: [1] > 100 µM | [3] > 100 µM | [4] > 100 µM | [5] > 100 µM | [7] > 100 µM | [8] > 100 µM | [9] > 100 µM | [11] > 100 µM | [12] > 100 µM | [13] > 100 µM | [14] > 100 µM | [15] > 100 µM | [16] > 100 µM | [17] > 100 µM | [18] > 100 µM | [19] 50.6 µM | [20] > 100 µM

CC(=O)OCc1ncccc1C(OC(C)=O)OC(C)=O
inactive: [1] > 100 µM | [2] > 100 µM | [3] > 100 µM | [4] > 100 µM | [5] > 100 µM | [6] > 100 µM | [7] > 100 µM | [8] > 100 µM | [9] > 100 µM | [10] > 100 µM | [11] > 100 µM | [13] > 100 µM | [14] > 100 µM | [15] > 100 µM | [16] > 100 µM | [17] > 100 µM | [18] > 100 µM | [19] > 100 µM | [20] > 100 µM

COc1ccc(C(=O)c2c(C(C(=O)c3ccc(OC)cc3)C(=O)c3ccc(OC)cc3)n(C(=O)c3ccc(OC)cc3)c3ccccc23)cc1
inactive: [1] > 100 µM | [2] > 100 µM | [3] > 100 µM | [4] > 100 µM | [5] > 100 µM | [6] > 100 µM | [7] > 100 µM | [8] > 100 µM | [9] > 100 µM | [10] > 100 µM | [11] > 100 µM | [12] > 100 µM | [13] > 100 µM | [14] > 100 µM | [15] > 100 µM | [16] > 100 µM | [17] > 100 µM | [18] > 100 µM | [19] > 100 µM

N=C(N)NCCCC(NCc1c2ccccc2[n+]([O-])c2ccccc12)C(=O)O (stereo not given)
inactive: [1] 38.9 µM | [2] 98.4 µM | [3] > 100 µM | [4] 26.4 µM | [5] 25.6 µM | [6] 34.5 µM | [7] 85.5 µM | [8] 27.1 µM | [9] 42.2 µM | [10] 41.6 µM | [11] 52.5 µM | [12] 30.3 µM | [13] 33.8 µM | [14] 36.4 µM | [15] > 100 µM | [16] 52.7 µM | [17] 66.7 µM | [19] 77.4 µM | [20] > 100 µM

CN(C)CCN1CCc2c([nH]c3ccccc23)C1c1cccnc1 (stereo not given)
inactive: [1] > 100 µM | [2] > 100 µM | [4] > 100 µM | [5] > 100 µM | [7] > 100 µM | [8] > 100 µM | [9] > 100 µM | [10] > 100 µM | [11] > 100 µM | [12] > 100 µM | [13] > 100 µM | [14] > 100 µM | [15] > 100 µM | [16] > 100 µM | [17] > 100 µM | [18] > 100 µM | [19] > 100 µM | [20] > 100 µM

CCOc1ccc(OCC(=O)O)c2c1CCCC2=O
inactive: [1] > 100 µM | [2] > 100 µM | [3] > 100 µM | [4] > 100 µM | [6] > 100 µM | [7] > 100 µM | [8] > 100 µM | [9] > 100 µM | [10] > 100 µM | [11] > 100 µM | [12] > 100 µM | [13] > 100 µM | [14] > 100 µM | [15] > 100 µM | [16] > 100 µM | [17] > 100 µM | [18] > 100 µM | [19] > 100 µM | [20] > 100 µM

Source: ChEMBL document CHEMBL1201862, “PubChem BioAssay data set” (2004)
